“And” between values parts separate entries of the source, which are not always exact repeats. Equal values may be shown once.
Tests used:
Type in all cases: cell-based, human
[1] = tested on: ISG expression in MCF10A Cas9 cells expressing BRCC45 R137A; experiment: MCF10A BRCC45 R137A ISG expression (RT–qPCR); parameters: scale not given here; conditions: BRCC45 KO+ BRCC45 R137A; replicate values
Method: Supplementary Protocols 1. Experimental procedures for cell biology experiments. […]
Media supplements including human insulin solution (Santa Cruz Biotechnology, #sc-360248), cholera toxin from vibrio (Sigma Aldrich, #C8052-2MG), recombinant human EGF (PeproTech, #AF-100-15-100µg), hydrocortisone (Sigma-Aldrich, #H-0888) were used to grow MCF10A cells. The 4–12% Bis-Tris SDS-PAGE gels, cell culture media, horse serum and other materials for tissue culture were purchased from Invitrogen. LipoD293 (SigmaGen, #SL100668) was used for all the transfections to generate knock out cell lines.
Immortalised breast epithelial cell line MCF10A were cultured in 10 cm plates with Dulbecco’s Modified Eagle Medium (DMEM) + F-12 (1:1) supplemented with 5% horse serum, 100 ng/mL cholera toxin, 10 […]
Real-time quantitative PCR
1x10^5 MCF10A cells were cultured as described above and seeded into 6 well plates. Cells were left to reach ultra-confluence. Once confluent, cells were washed with PBS and starved for 30 minutes in 2 mL DMEM + F-12 (1:1) supplemented with 1% horse serum. After 30 minutes cells were pre-treated with either DMSO (0.1%) (Control and IFN only) or BRISC inhibitor (2.5 µM) for 15 minutes. After 15 minutes, hIFN2α (75 ng/mL) was added to the media and mixed. Cells were treated for 4 hours. Cells were washed with ice cold PBS and scraped with cell scrapers into 350 µL RNAlater buffer and RNA […]
#79254). Isolated RNA was quantified using a Nanodrop spectrophotometer. RNA was converted into cDNA and the complementary DNA was used for real-time quantitative PCR analysis of expression of interferon stimulated genes (ISG15, IFIT1, IFIT2, IFITM1, CXCL10 and RNA18S) using an Applied Biosystems Quantstudio 6 RT-PCR system. All experiments were carried out in triplicate.

[2] = tested on: ISG expression in healthy control PBMCs; experiment: Healthy PBMC type I IFN signaling gene expression array, IFNα2-stimulated; conditions: IFNα2 20 ng/mL, 2 µM, 16 h
Method: NEM). Cell lysates were clarified by centrifugation at 15,000 g for 10 minutes at 4 °C. Clarified lysates were pre-cleared with control uncoupled agarose beads (UM400, LifeSensors) for 30 minutes on a rotator at 4 °C followed by centrifugation at 5,000 g for 2 minutes. Equal amount of pre-cleared lysates from individual samples were incubated with 20 µL Agarose-TUBE beads (pre-equilibrated with 1X Tris-buffered saline (TBS)) overnight on a rotator at 4 °C. Beads were collected by centrifugation at 5,000 g for 2 minutes at RT followed by four stringent washes with 1X TBST (TBS, 0.1% Tween-20). TUBE-pulldown proteins were eluted by boiling Agarose-TUBE beads in 2X LDS sample buffer supplemented with […] DTT for 15 minutes. Eluted proteins were resolved on NuPAGE™ 4–12% Bis–Tris gel followed by Western blotting using anti-IFNAR1 antibody (ab124764, Abcam).
(§1) PBMCs in vitro experiments
(§2) Peripheral blood mononuclear cells (PBMCs) from healthy and SSc donors were separated using density gradient method (Leucosep™, Greiner Bio-One International) from EDTA anticoagulated peripheral blood; isolated cells were washed twice by PBS. PBMCs were then incubated in RPMI1640 […]
For healthy PBMCs, cells were stimulated with 20 ng/mL of IFN (+/- compounds or DMSO). […] Concentration of CXCL10 was determined according to a 4-parameter logistic regression standard curve. […]
For Type I IFN signalling analysis, the human IFN I RT2 Profiler PCR Array (Qiagen, PAMM-016ZE) was performed on available RNA from healthy (n=3) and SSc (n=9) donors. […] Relative expression for each gene was determined, firstly by ∆CT calculated using the geometric mean of 4 housekeeping genes (ACTB, GAPDH, HPRT1, RPLP0), followed by 2^(-∆CT), and expressed as fold change to control, according to manufacturer’s guidance. IFN2α-induced ISGs in healthy donors were determined using a Student’s t-test (two-tail distribution and equal variances) on the triplicate fold change in 2^(-ΔCT) values between […]
(§3) R Foundation for Statistical Computing). The IFN2α inducible genes determined in healthy donors […]

[3] = tested on: composite ISG score in SSc PBMCs; experiment: SSc PBMC composite ISG score (CXCL10, IFIT1, ISG15, MX1); conditions: for CXCL10 / IFIT1 / ISG15 / MX1: sheet Ext. 9e, SSc PBMCs, 20 values per compound (one per patient sample); for composite ISG score: unstimulated SSc PBMCs (n = 20), 2 µM, 16 h, relative to AP-5-145
Method: as §1, §2
For healthy PBMCs, cells were stimulated with 20 ng/mL of IFN (+/- compounds or DMSO). For SSc PBMCs, cells were in basal conditions with no additional IFN stimulation. Cells were centrifuged at 300 g for 10 minutes. […]
RNA was extracted from cell pellets using TRIzol™ (ThermoFisher
Scientific, Waltham, MA) and processed using Quick-RNA Miniprep Kit (Zymo Research) as per the manufacturer’s instruction.
For Type I IFN signalling analysis, the human IFN I RT2 Profiler PCR Array (Qiagen, PAMM-016ZE) was performed on available RNA from healthy (n=3) and SSc (n=9) donors. RNA was converted to cDNA using RT2 First Strand Kit (Qiagen). Next, the cDNA was mixed with RT2 SYBR Green Mastermix (Qiagen, Venlo). Successful PCR performance was confirmed by assay tests for genomic DNA contamination, RNA sample quality, as well as single melt curve determination and <35 Ct for each gene, leading to validated gene expression of 67 genes. Relative expression for each gene was determined, firstly by ∆CT calculated using the geometric mean of 4 housekeeping genes (ACTB, GAPDH, HPRT1, RPLP0), followed by 2^(-∆CT), and expressed as fold change to control, according to manufacturer’s guidance. IFN2α-induced ISGs in healthy donors were determined using a Student’s t-test (two-tail distribution and equal variances) on the triplicate fold change in 2^(-ΔCT) values between […]
donors). Heatmaps were generated using the “pheatmap” function in R (v4.0.2) and RStudio (v1.3.1093) applying row scaling to standardise the expression data across samples (R core team 2020.
as §3
171-C. To account for Type I IFN signalling heterogeneity across samples, the mean 2^(-∆CT) for each […]
relative gene expression, illustrated as a fold change and visualised in log2. The Type I IFN signalling array data for the patient samples is included in Source Data Figure 6, Extended Data Fig. 9.

Structure (SMILES) | ISG expression (Fig. 5b) [1] | ISG expression (Fig. 5c) [1] | ISG expression (Fig. 5e) [1] | ISG expression (Fig. 5f) [1] | ISG expression (Fig. 5d) [1] | IFN-induced ISG expression (in words) [2] | CXCL10 [3] | IFIT1 [3] | ISG15 [3] | MX1 [3] | composite ISG score [3] | number of the 34 IFN-upregulated ISGs suppressed compared to AP-5-145 [2]
Cn1cc(NC(=O)c2c(Cl)cccc2Cl)c(C(=O)NC2CCN(C(=O)c3c(Cl)cccc3Cl)CC2)n1 [AP-5-145] | 1.156 and 0.9393 and 0.8616 and 0.9356 and 0.9314 | 1.216 and 0.9273 and 0.916 and 0.9352 and 0.7895 | 1.091 and 0.9001 and 0.8733 and 0.8458 and 0.7765 | 1.662 and 0.8736 and 0.8819 and 0.8534 and 1.058 | 1.117 and 1.15 and 0.9989 and 1.074 and 0.7573 | no difference in ISG expression profile | 1.751 and 0.25 and 0.7382 and 0.8655 and 0.7967 and 0.4021 and 0.5617 and 1.22 and 0.6479 and 2.776 and 1.1866 and 0.5017 and 0.551 and 0.4363 and 0.9229 and 0.6553 and 1.25 and 0.7409 and 0.339 and 0.3688 | 0.6337 and 0.5474 and 0.8263 and 0.6524 and 0.6203 and 0.9706 and 0.5382 and 1.166 and 0.8191 and 0.9287 and 1.423 and 0.5364 and 0.8639 and 0.4363 and 0.9229 and 1.253 and 1.322 and 1.329 and 0.8934 and 0.7188 | 1.377 and 0.6237 and 1.266 and 0.7354 and 0.9639 and 0.9802 and 0.5935 and 1.766 and 0.659 and 0.6409 and 0.6943 and 0.6974 and 1.099 and 0.4464 and 1.007 and 1.459 and 1.622 and 0.4684 and 1.547 and 1.209 | 0.9424 and 0.9381 and 0.6518 and 0.8276 and 0.6072 and 1.137 and 0.7908 and 1.689 and 0.9753 and 0.9313 and 1.364 and 0.7737 and 0.8832 and 0.4676 and 0.7628 and 0.9541 and 1.254 and 0.9134 and 1.016 and 0.8618 |  | 
O=C(NC1C2CNCC21)c1nn(C(=O)c2c(Cl)cccc2Cl)cc1NC(=O)c1c(Cl)cccc1Cl (centres unmarked) [FX-171-C] | 1.886 and 0.9791 and 0.9889 and 0.9654 and 2.3346 | 1.805 and 0.9044 and 1.045 and 1.083 and 2.1 | 1.992 and 0.8788 and 0.9319 and 1.019 and 2.187 | 1.937 and 0.8462 and 0.8933 and 0.87 and 0.6063 | 2.039 and 1.092 and 1.112 and 1.2514 and 2.244 | less reduction in ISG expression | 1.514 and 0.251 and 1.066 and 0.167 and 0.5332 and 0.7533 and 1.612 and 0.6702 and 0.5368 and 1.6313 and 0.1436 and 0.6323 and 0.4166 and 0.1288 and 0.6936 and 0.646 and 0.6924 and 0.6022 and 0.5701 and 0.08999 | 0.2868 and 0.437 and 1.363 and 0.3735 and 0.4257 and 0.6696 and 0.8252 and 0.3503 and 0.5958 and 0.5382 and 1.388 and 0.256 and 0.9671 and 0.1288 and 0.6936 and 1.317 and 1.359 and 0.9945 and 0.8122 and 0.05751 | 0.9038 and 0.4123 and 1.522 and 0.5454 and 1.252 and 0.967 and 0.791 and 0.6842 and 0.9244 and 0.2949 and 0.1516 and 1.006 and 0.9237 and 0.1709 and 0.7851 and 1.799 and 0.9132 and 0.323 and 0.9506 and 0.1287 | 0.4428 and 0.9634 and 1.459 and 0.4711 and 0.7459 and 1.024 and 0.9419 and 0.919 and 0.9953 and 1.074 and 1.146 and 0.5685 and 0.9032 and 0.1777 and 0.6324 and 0.9421 and 1.363 and 0.7344 and 1.47 and 0.4028 | reduced the composite ISG score | 
O=C(NC1CCNCC1)c1nn(C(=O)c2c(Cl)cccc2Cl)cc1NC(=O)c1c(Cl)cccc1Cl [JMS-175-2] | 1.361 and 1.11 and 1.149 and 1.082 and 0.8783 | 1.325 and 1.127 and 1.329 and 1.145 and 0.8628 | 1.156 and 1.163 and 1.393 and 1.185 and 1.136 | 1.041 and 1.139 and 1.224 and 1.412 and 1.207 | 1.23 and 1.313 and 1.719 and 1.523 and 0.8668 |  | 0.2536 and 3.414 and 0.2313 and 0.3588 and 1.2272 and 0.4193 and 1.168 and 0.8338 and 0.6055 and 1.239 and 0.3406 and 0.08106 and 0.000123 and 0.3625 and 0.05611 and 0.1808 and 1.381 and 0.5771 and 0.5421 and 0.1347 | 0.2366 and 1.382 and 0.8014 and 0.1818 and 0.6785 and 0.4193 and 1.168 and 0.7189 and 1.817 and 1.319 and 1.1 and 0.2301 and 0.1676 and 0.4861 and 0.2758 and 0.6203 and 0.8038 and 0.5004 and 0.169 and 0.3186 | 0.4563 and 0.8641 and 0.6274 and 0.4056 and 0.5557 and 0.616 and 1.197 and 0.8342 and 1.6 and 0.5253 and 1.319 and 0.4936 and 0.2916 and 0.7218 and 0.3961 and 0.8921 and 0.9105 and 0.5615 and 0.4313 and 0.6786 | 0.223 and 0.8929 and 1.04 and 0.5006 and 0.9521 and 0.6554 and 1.256 and 0.9444 and 1.592 and 1.073 and 1.238 and 0.494 and 0.2991 and 0.4305 and 0.1662 and 0.4949 and 1.066 and 0.6875 and 0.4778 and 0.5729 | reduced the composite ISG score | 13
